From the supplement of paper PMC10307832

What was measured:
Assay in all cases: relative viability (nuclei count vs DMSO), 5 days (fraction); higher = more cells survive
NCI-H647 = test system: NCI-H647
How it was run: (§1)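 Lung cancer cell lines were seeded in 1536-well plates and dosed by pin tool the next day, with either a single drug or a fixed anchor-drug dose combined with five library-drug doses (not always all listed) spaced in √10 steps. Five days later, one step fixed the cells and stained their nuclei (final 0.05% Triton X-100, 1% formaldehyde, 1 ug/ml Hoechst), and nuclei were counted on 4× images. Relative viability is the nuclei count in treated wells divided by the count in vehicle wells, and each value is the median of duplicate plates.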

LU99A = test system: LU99A
How it was run: as §1

NCI-H1395 = test system: NCI-H1395
How it was run: as §1

H3255 = test system: H3255
How it was run: as §1

HCC-827 = test system: HCC-827
How it was run: as §1

BEN = test system: BEN
How it was run: as §1

SW 1573 = test system: SW 1573
How it was run: as §1

NCI-H1975 = test system: NCI-H1975
How it was run: as §1

NCI-H2087 = test system: NCI-H2087
How it was run: as §1

EKVX = test system: EKVX
How it was run: as §1

HCC-44 = test system: HCC-44
How it was run: as §1

LCLC-97TM1 = test system: LCLC-97TM1
How it was run: as §1

LOU-NH91 = test system: LOU-NH91
How it was run: as §1

NCI-H1666 = test system: NCI-H1666
How it was run: as §1

NCI-H358 = test system: NCI-H358
How it was run: as §1

COR-L 105 = test system: COR-L 105
How it was run: as §1

201T = test system: 201T
How it was run: as §1

NCI-H1437 = test system: NCI-H1437
How it was run: as §1

EPLC-272H = test system: EPLC-272H
How it was run: as §1

NCI-H2085 = test system: NCI-H2085
How it was run: as §1

HOP-62 = test system: HOP-62
How it was run: as §1

NCI-H2342 = test system: NCI-H2342
How it was run: as §1

PC-3 [JPC-3] = test system: PC-3 [JPC-3]
How it was run: as §1

Oc1nc(-c2ccc(C(F)(F)F)cc2)nc2c1CSCC2 [XAV939] + COc1cccc2cc(-c3nc([C@H]4CC[C@H](C(=O)O)CC4)n4ncnc(N)c34)[nH]c12 [OSI-027] (partner 0.5 µM)
relative viability (NCI-H647; first compound 0.08 µM): 0.722 | relative viability (NCI-H647; first compound 0.253 µM): 0.46 | relative viability (NCI-H647; first compound 0.8 µM): 0.656 | relative viability (NCI-H647; first compound 2.53 µM): 0.464 | relative viability (LU99A; first compound 0.08 µM): 0.303 | relative viability (LU99A; first compound 0.253 µM): 0.348 | relative viability (LU99A; first compound 0.8 µM): 0.329 | relative viability (LU99A; first compound 2.53 µM): 0.268 | relative viability (NCI-H1395; first compound 0.08 µM): 0.656 | relative viability (NCI-H1395; first compound 0.253 µM): 0.612 | relative viability (NCI-H1395; first compound 0.8 µM): 0.556 | relative viability (NCI-H1395; first compound 2.53 µM): 0.634 | relative viability (H3255; first compound 0.08 µM): 0.555 | relative viability (H3255; first compound 0.253 µM): 0.584 | relative viability (H3255; first compound 0.8 µM): 0.6 | relative viability (H3255; first compound 2.53 µM): 0.384 | relative viability (HCC-827; first compound 0.08 µM): 0.817 | relative viability (HCC-827; first compound 0.253 µM): 0.744 | relative viability (HCC-827; first compound 0.8 µM): 0.826 | relative viability (HCC-827; first compound 2.53 µM): 0.711 | relative viability (BEN; first compound 0.08 µM): 0.28 | relative viability (BEN; first compound 0.253 µM): 0.303 | relative viability (BEN; first compound 0.8 µM): 0.314 | relative viability (BEN; first compound 2.53 µM): 0.309 | relative viability (SW 1573; first compound 0.08 µM): 0.602 | relative viability (SW 1573; first compound 0.253 µM): 0.556 | relative viability (SW 1573; first compound 0.8 µM): 0.542 | relative viability (SW 1573; first compound 2.53 µM): 0.494 | relative viability (NCI-H1975; first compound 0.08 µM): 0.829 | relative viability (NCI-H1975; first compound 0.253 µM): 0.639 | relative viability (NCI-H1975; first compound 0.8 µM): 0.681 | relative viability (NCI-H1975; first compound 2.53 µM): 0.526 | relative viability (NCI-H2087; first compound 0.08 µM): 0.833 | relative viability (NCI-H2087; first compound 0.253 µM): 0.504 | relative viability (NCI-H2087; first compound 0.8 µM): 0.444 | relative viability (NCI-H2087; first compound 2.53 µM): 0.46 | relative viability (EKVX; first compound 0.08 µM): 0.719 | relative viability (EKVX; first compound 0.253 µM): 0.686 | relative viability (EKVX; first compound 0.8 µM): 0.593 | relative viability (EKVX; first compound 2.53 µM): 0.532 | relative viability (HCC-44; first compound 0.08 µM): 0.611 | relative viability (HCC-44; first compound 0.253 µM): 0.533 | relative viability (HCC-44; first compound 0.8 µM): 0.476 | relative viability (HCC-44; first compound 2.53 µM): 0.726 | relative viability (LCLC-97TM1; first compound 0.08 µM): 0.643 | relative viability (LCLC-97TM1; first compound 0.253 µM): 0.566 | relative viability (LCLC-97TM1; first compound 0.8 µM): 0.545 | relative viability (LCLC-97TM1; first compound 2.53 µM): 0.609 | relative viability (LOU-NH91; first compound 0.08 µM): 0.701 | relative viability (LOU-NH91; first compound 0.253 µM): 0.662 | relative viability (LOU-NH91; first compound 0.8 µM): 0.69 | relative viability (LOU-NH91; first compound 2.53 µM): 0.675 | relative viability (NCI-H1666; first compound 0.08 µM): 0.883 | relative viability (NCI-H1666; first compound 0.253 µM): 0.711 | relative viability (NCI-H1666; first compound 0.8 µM): 0.752 | relative viability (NCI-H1666; first compound 2.53 µM): 0.627 | relative viability (NCI-H358; first compound 0.08 µM): 0.793 | relative viability (NCI-H358; first compound 0.253 µM): 0.624 | relative viability (NCI-H358; first compound 0.8 µM): 0.785 | relative viability (NCI-H358; first compound 2.53 µM): 0.605 | relative viability (COR-L 105; first compound 0.08 µM): 0.722 | relative viability (COR-L 105; first compound 0.253 µM): 0.589 | relative viability (COR-L 105; first compound 0.8 µM): 0.5 | relative viability (COR-L 105; first compound 2.53 µM): 0.482 | relative viability (201T; first compound 0.08 µM): 0.61 | relative viability (201T; first compound 0.253 µM): 0.487 | relative viability (201T; first compound 0.8 µM): 0.575 | relative viability (201T; first compound 2.53 µM): 0.622 | relative viability (NCI-H1437; first compound 0.08 µM): 1.03 | relative viability (NCI-H1437; first compound 0.253 µM): 0.877 | relative viability (NCI-H1437; first compound 0.8 µM): 0.89 | relative viability (NCI-H1437; first compound 2.53 µM): 0.783 | relative viability (EPLC-272H; first compound 0.08 µM): 0.312 | relative viability (EPLC-272H; first compound 0.253 µM): 0.22 | relative viability (EPLC-272H; first compound 0.8 µM): 0.261 | relative viability (EPLC-272H; first compound 2.53 µM): 0.314 | relative viability (NCI-H2085; first compound 0.08 µM): 0.638 | relative viability (NCI-H2085; first compound 0.253 µM): 0.686 | relative viability (NCI-H2085; first compound 0.8 µM): 0.958 | relative viability (NCI-H2085; first compound 2.53 µM): 0.625 | relative viability (HOP-62; first compound 0.08 µM): 1.01 | relative viability (HOP-62; first compound 0.253 µM): 0.773 | relative viability (HOP-62; first compound 0.8 µM): 0.763 | relative viability (HOP-62; first compound 2.53 µM): 0.574 | relative viability (NCI-H2342; first compound 0.08 µM): 0.596 | relative viability (NCI-H2342; first compound 0.253 µM): 0.481 | relative viability (NCI-H2342; first compound 0.8 µM): 0.531 | relative viability (NCI-H2342; first compound 2.53 µM): 0.464 | relative viability (PC-3 [JPC-3]; first compound 0.08 µM): 0.756 | relative viability (PC-3 [JPC-3]; first compound 0.253 µM): 0.611 | relative viability (PC-3 [JPC-3]; first compound 0.8 µM): 0.777 | relative viability (PC-3 [JPC-3]; first compound 2.53 µM): 0.599
